Test results as given in article PMC7150468, “A2AR Antagonism with DZD2269 Augments Antitumor Efficacy of Irradiation in Murine Model” (Journal of Cancer, 2020).

Target: T1, adenosine 2A receptor (A2AR) (Mus musculus, UniProt Q60613)
T1 construct: gene Adora2a
Assay: inhibition of NECA ([…])-stimulated CREB phosphorylation in mouse CD8+ T cells, flow cytometry
Format: cell-based

T1 sequence (Q60613 whole entry): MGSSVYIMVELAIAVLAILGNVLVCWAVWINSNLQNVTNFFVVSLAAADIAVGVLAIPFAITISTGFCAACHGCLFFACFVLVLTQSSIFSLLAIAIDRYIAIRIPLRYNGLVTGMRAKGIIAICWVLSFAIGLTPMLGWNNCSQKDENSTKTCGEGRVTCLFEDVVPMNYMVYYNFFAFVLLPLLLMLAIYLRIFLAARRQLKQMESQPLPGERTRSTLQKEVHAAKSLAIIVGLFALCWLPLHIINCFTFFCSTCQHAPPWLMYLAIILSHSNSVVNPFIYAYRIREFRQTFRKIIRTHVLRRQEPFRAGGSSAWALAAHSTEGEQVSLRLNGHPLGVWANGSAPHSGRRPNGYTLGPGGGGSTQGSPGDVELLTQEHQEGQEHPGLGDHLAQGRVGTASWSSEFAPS

IC50: ~3 nM
Substance: DZD2269
